Measurements from patent US20250361210A1, “3,4-DIHYDROQUINOLIN-2(1H)-ONE COMPOUND” (Kissei Pharmaceutical Co., Ltd., priority 2022, published 2025).

molecular target: T1, human TSHR (Homo sapiens, UniProt P16473); assay: Antagonist activity using TSH-induced cAMP production in human TSHR-stably expressing CHO cells; assay type: cell-based; settings: human TSH 50 ng/mL
T1 construct: expressed in transfected cells
Description: Measurement of Antagonist Activity Using TSH-Induced cAMP Production in Human TSHR-Stably Expressing CHO Cells as an Indicator
The human TSHR gene sequence (reference number NM_000369.2) was inserted into the multicloning site of pcDNA3.1(+). The constructed plasmid vector was introduced into CHO cells using the lipofection method to establish human TSHR-stably expressing CHO cells. The obtained cells were seeded at 5×10^4 cells/well in a 96-well poly-D-lysine-coated plate, and cultured in an F12 culture medium containing 10% FBS, 400 μg/mL of G418, 50 U/mL of penicillin and 50 μg/mL of streptomycin under conditions of 37° C. and 5% CO2 for 1 day. After the culture medium was removed, the cells were washed twice with 100 μL of an assay buffer solution (Hanks' Balanced Salt Solution containing 20 mM HEPES and 1 mM IBMX) per well. 30 μL of a test compound-containing assay buffer solution was added to the well and incubated at room temperature for 15 minutes. Then, 30 μL of an assay buffer solution containing human TSH (final concentration 50 ng/mL, R&D Systems, Inc.) was added, and incubated at 37° C. for 1 hour. The supernatant was removed, a Lysis and Detection Buffer 2 (Cisbio) was added, and the mixture was incubated at room temperature for 1 hour to prepare a cell lysate. According to the instruction manual of a cAMP Gs HiRange kit (Cisbio), the cell lysate, d2-labeled cAMP and anti-cAMP Europium Cryptate labeled antibodies (Cisbio) were reacted in a 384-well white microplate. Then, a fluorescence intensity ratio (measurement wavelength 665 nm/620 nm) was measured using a multi-plate reader (PHERAstar FSX, BMG LABTECH, Japan). The fluorescence intensity ratio of each sample was converted to a cAMP content using a standard curve. The cAMP content was converted as a percentage of the control value to calculate the cAMP production rate. The CAMP production rate was plotted against the test compound concentration using Prism (Graph Pad Software Inc.) to calculate the IC50 value. The IC50 of each test compound is shown in the above tables. In the tables, IC50<0.5 μM: A, 0.5 μM≤IC50<3.0 μM: B, 3.0 μM≤IC50<30 μM: C are shown.

T1 sequence (P16473 21-764): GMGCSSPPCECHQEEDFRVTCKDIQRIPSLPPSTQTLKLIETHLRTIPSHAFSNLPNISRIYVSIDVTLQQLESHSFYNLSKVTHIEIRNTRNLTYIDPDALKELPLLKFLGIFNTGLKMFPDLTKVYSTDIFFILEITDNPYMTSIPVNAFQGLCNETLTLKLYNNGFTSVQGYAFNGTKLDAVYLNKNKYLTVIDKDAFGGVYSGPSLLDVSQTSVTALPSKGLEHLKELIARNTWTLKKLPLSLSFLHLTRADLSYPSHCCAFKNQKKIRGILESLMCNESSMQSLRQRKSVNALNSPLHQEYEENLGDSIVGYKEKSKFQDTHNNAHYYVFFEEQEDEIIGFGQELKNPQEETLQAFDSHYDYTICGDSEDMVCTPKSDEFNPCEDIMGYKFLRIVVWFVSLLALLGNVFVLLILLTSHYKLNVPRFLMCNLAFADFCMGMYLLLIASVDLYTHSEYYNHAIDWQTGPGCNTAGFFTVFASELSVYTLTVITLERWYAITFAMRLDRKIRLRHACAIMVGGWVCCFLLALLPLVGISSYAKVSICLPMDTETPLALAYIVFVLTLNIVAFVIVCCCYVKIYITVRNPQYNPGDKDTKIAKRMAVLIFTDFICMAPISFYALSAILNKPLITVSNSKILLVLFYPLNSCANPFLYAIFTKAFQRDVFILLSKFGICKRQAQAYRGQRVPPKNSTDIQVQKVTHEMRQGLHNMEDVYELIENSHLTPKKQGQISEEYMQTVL

IC50 [nM]	SMILES
< 500	CCc1ccc2c(c1Oc1cc(F)ccc1Cl)N(C)C(=O)[C@H](NC(N)=O)C2 [Example 76, ((3R)-8-(2-chloro-5-fluorophenoxy)-7-ethyl-1-methyl-2-oxo-1,2,3,4-tetrahydroquinolin-3-yl)urea]
< 500	CN1C(=O)[C@H](NC(N)=O)Cc2ccc(F)c(Cc3ccccc3C(F)(F)F)c21 [Example 61, ((3R)-7-fluoro-1-methyl-2-oxo-8-((2-(trifluoromethyl)phenyl)methyl)-1,2,3,4-tetrahydroquinolin-3-yl)urea]
< 500	Cc1ccc2c(c1Oc1cc(F)ccc1Cl)N(C)C(=O)[C@H](NC(=O)C1CC1)C2 [Example 82]
< 500	CN1C(=O)[C@H](NC(N)=O)Cc2cccc(Oc3ccc(F)cc3C(F)F)c21 [Example 29]
< 500	Cc1ccccc1Oc1cccc2c1N(C)C(=O)[C@H](NC(N)=O)C2 [Example 47, ((3R)-1-methyl-8-(2-methylphenoxy)-2-oxo-1,2,3,4-tetrahydroquinolin-3-yl)urea]
500 to 3000	CCc1ccccc1Oc1cccc2c1N(C)C(=O)[C@H](NC(N)=O)C2 [Example 14]
3000 to 30000	CN1C(=O)C(CC(N)=O)Cc2cccc(Oc3ccccc3)c21 (stereo not shown) [Example 1, 2-(1-methyl-2-oxo-8-phenoxy-1,2,3,4-tetrahydroquinolin-3-yl)acetamide]
500 to 3000	CN1C(=O)C(NC(N)=O)Cc2cccc(Oc3cccc(Cl)c3)c21 (stereo not shown) [Example 6, (8-(3-chlorophenoxy)-1-methyl-2-oxo-1,2,3,4-tetrahydroquinolin-3-yl)urea]
500 to 3000	CN1C(=O)C(NC(N)=O)Cc2cccc(Oc3cccc(C(F)(F)F)c3)c21 (stereo not shown) [Example 5, (1-methyl-2-oxo-8-(3-(trifluoromethyl)phenoxy)-1,2,3,4-tetrahydroquinolin-3-yl)urea]
500 to 3000	COc1cccc(Oc2cccc3c2N(C)C(=O)[C@H](NC(N)=O)C3)c1 [Example 13]
500 to 3000	CN1C(=O)C(NC(N)=O)Cc2cccc(Oc3ccccc3)c21 (stereo not shown) [Example 2, (1-methyl-2-oxo-8-phenoxy-1,2,3,4-tetrahydroquinolin-3-yl)urea]
500 to 3000	CN1C(=O)C(NC(N)=O)Cc2ccc(Cl)c(Oc3ccccc3)c21 (stereo not shown) [Example 8]
< 500	CN1C(=O)[C@H](NC(N)=O)Cc2ccc(Cl)c(Oc3cccc(F)c3)c21 [Example 26, ((3R)-7-chloro-8-(3-fluorophenoxy)-1-methyl-2-oxo-1,2,3,4-tetrahydroquinolin-3-yl)urea]
< 500	Cc1ccc(F)cc1Cc1cccc2c1N(C)C(=O)[C@H](NC(N)=O)C2 [Example 68, ((3R)-8-((5-fluoro-2-methylphenyl)methyl)-1-methyl-2-oxo-1,2,3,4-tetrahydroquinolin-3-yl)urea]
< 500	Cc1ccc2c(c1Oc1cc(F)ccc1Cl)N(C)C(=O)[C@H](NC(=O)C(Cl)Cl)C2 [Example 83]
3000 to 30000	COc1ccccc1Oc1cccc2c1N(C)C(=O)[C@H](NC(N)=O)C2 [Example 11, ((3R)-8-(2-methoxyphenoxy)-1-methyl-2-oxo-1,2,3,4-tetrahydroquinolin-3-yl)urea]
< 500	CN1C(=O)[C@H](NC(N)=O)Cc2ccc(CF)c(Oc3cc(F)ccc3Cl)c21 [Example 73, ((3R)-8-(2-chloro-5-fluorophenoxy)-7-(fluoromethyl)-1-methyl-2-oxo-1,2,3,4-tetrahydroquinolin-3-yl)urea]
< 500	Cc1ccc2c(c1Oc1ccccc1Cl)N(C)C(=O)[C@H](NC(N)=O)C2 [Example 31, ((3R)-8-(2-chlorophenoxy)-1,7-dimethyl-2-oxo-1,2,3,4-tetrahydroquinolin-3-yl)urea]
< 500	Cc1ccc2c(c1Oc1cc(F)ccc1F)N(C)C(=O)[C@H](NC(N)=O)C2 [Example 50, ((3R)-8-(2,5-difluorophenoxy)-1,7-dimethyl-2-oxo-1,2,3,4-tetrahydroquinolin-3-yl)urea]
500 to 3000	CN1C(=O)C(NC(N)=O)Cc2ccc(F)c(Oc3ccccc3)c21 (stereo not shown) [Example 7]

IC50 [nM]	SMILES
< 500	Cc1ccc(F)cc1Oc1cccc2c1N(C)C(=O)[C@H](NC(N)=O)C2 [Example 48, ((3R)-8-(5-fluoro-2-methylphenoxy)-1-methyl-2-oxo-1,2,3,4-tetrahydroquinolin-3-yl)urea]
< 500	CN1C(=O)[C@H](NC(N)=O)Cc2cccc(Oc3ccccc3Cl)c21 [Example 40, ((3R)-8-(2-chlorophenoxy)-1-methyl-2-oxo-1,2,3,4-tetrahydroquinolin-3-yl)urea]
< 500	CN1C(=O)[C@H](NC(N)=O)Cc2cccc(Oc3cc(F)ccc3C(F)(F)F)c21 [Example 21, ((3R)-8-(5-fluoro-2-(trifluoromethyl)phenoxy)-1-methyl-2-oxo-1,2,3,4-tetrahydroquinolin-3-yl)urea]
< 500	CN1C(=O)[C@H](NC(N)=O)Cc2cccc(Cc3ccccc3Cl)c21 [Example 51, ((3R)-8-((2-chlorophenyl)methyl)-1-methyl-2-oxo-1,2,3,4-tetrahydroquinolin-3-yl)urea]
< 500	CN1C(=O)[C@H](NC(N)=O)Cc2ccc(Cl)c(Oc3ccccc3C(F)F)c21 [Example 27, ((3R)-7-chloro-8-(2-(difluoromethyl)phenoxy)-1-methyl-2-oxo-1,2,3,4-tetrahydroquinolin-3-yl)urea]
3000 to 30000	Cc1ccc2c(c1Cc1cccc(F)c1)N(C)C(=O)[C@H](NC(N)=O)C2 [Example 67]
< 500	CC(c1cc(F)ccc1Cl)c1cccc2c1N(C)C(=O)[C@H](NC(N)=O)C2 (stereo partly shown) [Example 79]
< 500	CN1C(=O)[C@H](NC(N)=O)Cc2cccc(Cc3ccccc3C(F)(F)F)c21 [Example 53, ((3R)-1-methyl-2-oxo-8-((2-(trifluoromethyl)phenyl)methyl)-1,2,3,4-tetrahydroquinolin-3-yl)urea]
< 500	CCN1C(=O)[C@H](NC(N)=O)Cc2cccc(Oc3ccccc3Cl)c21 [Example 34, ((3R)-8-(2-chlorophenoxy)-1-ethyl-2-oxo-1,2,3,4-tetrahydroquinolin-3-yl)urea]
< 500	CN1C(=O)[C@H](NC(N)=O)Cc2ccc(F)c(Cc3ccccc3Cl)c21 [Example 60, ((3R)-8-((2-chlorophenyl)methyl)-7-fluoro-1-methyl-2-oxo-1,2,3,4-tetrahydroquinolin-3-yl)urea]
500 to 3000	CC(C)c1ccccc1Oc1cccc2c1N(C)C(=O)[C@H](NC(N)=O)C2 [Example 17, ((3R)-1-methyl-2-oxo-8-(2-(propan-2-yl)phenoxy)-1,2,3,4-tetrahydroquinolin-3-yl)urea]
500 to 3000	CN1C(=O)[C@H](NC(N)=O)Cc2ccc(F)c(Oc3ccccc3C(F)F)c21 [Example 43, ((3R)-8-(2-(difluoromethyl)phenoxy)-7-fluoro-1-methyl-2-oxo-1,2,3,4-tetrahydroquinolin-3-yl)urea]
500 to 3000	CN1C(=O)[C@H](NC(N)=O)Cc2ccc(Cl)c(Cc3ccccc3F)c21 [Example 64, ((3R)-7-chloro-8-((2-fluorophenyl)methyl)-1-methyl-2-oxo-1,2,3,4-tetrahydroquinolin-3-yl)urea]
< 500	CN1C(=O)[C@H](NC(N)=O)Cc2ccc(F)c(Cc3cc(F)ccc3Cl)c21 [Example 56]
< 500	CC(c1ccccc1C(F)(F)F)c1cccc2c1N(C)C(=O)[C@H](NC(N)=O)C2 (stereo partly drawn) [Example 78, ((3R)-1-Methyl-2-oxo-8-(1-(2-(trifluoromethyl)phenyl)ethyl)-1,2,3,4-tetrahydroquinolin-3-yl)urea]
500 to 3000	CN1C(=O)[C@H](NC(N)=O)Cc2cccc(Oc3cccc(OC(F)F)c3)c21 [Example 24, ((3R)-8-(3-(difluoromethoxy)phenoxy)-1-methyl-2-oxo-1,2,3,4-tetrahydroquinolin-3-yl)urea]
3000 to 30000	CN1C(=O)[C@H](NC(N)=O)Cc2cccc(Oc3cccc(C#N)c3)c21 [Example 12, ((3R)-8-(3-cyanophenoxy)-1-methyl-2-oxo-1,2,3,4-tetrahydroquinolin-3-yl)urea]
3000 to 30000	CN1C(=O)C(NC(N)=O)Cc2cccc(Oc3ncccc3C(F)(F)F)c21 (stereo not shown) [Example 9, (1-methyl-2-oxo-8-((3-(trifluoromethyl)pyridine-2-yl)oxy)-1,2,3,4-tetrahydroquinolin-3-yl)urea]
< 500	CN1C(=O)[C@H](NC(N)=O)Cc2cccc(Oc3cc(F)ccc3Cl)c21 [Example 16, ((3R)-8-(2-chloro-5-fluorophenoxy)-1-methyl-2-oxo-1,2,3,4-tetrahydroquinolin-3-yl)urea]
500 to 3000	CN1C(=O)[C@H](NC(N)=O)Cc2ccc(O)c(Oc3ccccc3Cl)c21 [Example 33, ((3R)-8-(2-chlorophenoxy)-7-hydroxy-1-methyl-2-oxo-1,2,3,4-tetrahydroquinolin-3-yl)urea]
